{"source": "paper PMC9598282", "about": "(Antibiotics, 2022)", "key": {"[1]": {"test_system": "P. aeruginosa PAO1", "type": "cell-based, Pseudomonas aeruginosa", "details": "wild-type", "protocol": "(§1) For the preparation of the bacterial solution, overnight grown culture was diluted in 0.85% saline solution, adjusted to 0.5 McFarland turbidity and further diluted in Mueller–Hinton broth for inoculation to a final concentration of 5 × 10^5 colony forming units/mL (CFU/mL). The agents were serially diluted two-fold in a 96-well plate, and equal volumes of bacterial solution were subsequently added to the designated wells. The well consisting of bacterial solution served as the positive control, while the well containing only media served as the negative control. The plate was then incubated at 37 °C for 18 h. After incubation, an Emax Plus microplate reader (Molecular Devices, Union City, CA, USA) was used to measure the optical density (OD) at a wavelength of 590 nm to confirm the turbidity. The antibacterial activity corresponded to the MIC, which is defined as the lowest concentration of the agent necessary to inhibit visible bacterial growth."}, "[2]": {"test_system": "P. aeruginosa 114228", "type": "cell-based, Pseudomonas aeruginosa", "details": "114228, 18 h", "protocol": "as §1"}, "[3]": {"test_system": "A. baumannii 92247", "type": "cell-based, Acinetobacter baumannii", "details": "92247, 18 h", "protocol": "as §1"}, "[4]": {"test_system": "A. baumannii ATCC 17978", "type": "cell-based, Acinetobacter baumannii", "details": "ATCC 17978, 18 h", "protocol": "as §1"}, "[5]": {"test_system": "A. baumannii LAC-4", "type": "cell-based, Acinetobacter baumannii", "details": "LAC-4, 18 h", "protocol": "as §1"}, "[6]": {"test_system": "E. coli 94393", "assay": "Checkerboard assay", "type": "cell-based, Escherichia coli", "protocol": "(§2) The adjuvant properties of the guanidinylated polymyxins were evaluated using the checkerboard assay as previously described. The bacterial solution was prepared as described in the antimicrobial susceptibility assay. The antibiotic of interest and the adjuvant were serially diluted two-fold along the x- and y-axis on a 96-well plate, respectively, resulting in varying concentrations of both agents in each well. Equal volumes of bacterial solution were added to the designated wells. The well consisting of bacterial solution served as the positive control, while the wells containing only media served as the negative control. The plate was then incubated at 37 °C for 18 h. After incubation, an Emax Plus microplate reader (Molecular Devices, Union City, CA, USA) was used to measure the OD at a wavelength of 590 nm to confirm the turbidity. The fractional inhibitory concentration (FIC) index was then determined to establish the relationship between the antibiotic and adjuvant. The FIC index corresponds to the sum of the FICs of the antibiotic and adjuvant. The FIC of each agent is calculated by dividing its MIC when it is used in combination by its MIC when used alone. FIC indices ≤0.5, 0.5 < x ≤ 4 and >4 indicate synergy, additivity and antagonism, respectively."}, "[7]": {"test_system": "E. coli 94474", "assay": "Checkerboard assay", "type": "cell-based, Escherichia coli", "protocol": "as §2"}, "[8]": {"test_system": "P. aeruginosa PA 88949", "assay": "MIC, broth microdilution", "type": "cell-based, Pseudomonas aeruginosa", "details": "β-lactamase harboring isolate", "protocol": "as §1"}, "[9]": {"test_system": "P. aeruginosa PA 107092", "assay": "MIC, broth microdilution", "type": "cell-based, Pseudomonas aeruginosa", "details": "β-lactamase harboring isolate", "protocol": "as §1"}, "[10]": {"test_system": "P. aeruginosa PA 108590", "assay": "MIC, broth microdilution", "type": "cell-based, Pseudomonas aeruginosa", "details": "β-lactamase harboring isolate", "protocol": "as §1"}, "[11]": {"test_system": "P. aeruginosa PA 109084", "assay": "MIC, broth microdilution", "type": "cell-based, Pseudomonas aeruginosa", "details": "β-lactamase harboring isolate", "protocol": "as §1"}, "[12]": {"test_system": "P. aeruginosa PA 86052", "assay": "MIC, broth microdilution", "type": "cell-based, Pseudomonas aeruginosa", "details": "β-lactamase harboring isolate", "protocol": "as §1"}, "[13]": {"test_system": "P. aeruginosa P262-101856", "assay": "Checkerboard assay", "type": "cell-based, Pseudomonas aeruginosa", "protocol": "as §2"}, "[14]": {"test_system": "P. aeruginosa 101243", "assay": "Checkerboard assay", "type": "cell-based, Pseudomonas aeruginosa", "protocol": "as §2"}, "[15]": {"test_system": "P. aeruginosa P259-96918", "assay": "Checkerboard assay", "type": "cell-based, Pseudomonas aeruginosa", "protocol": "as §2"}, "[16]": {"test_system": "P. aeruginosa P264-104354", "assay": "Checkerboard assay", "type": "cell-based, Pseudomonas aeruginosa", "protocol": "as §2"}, "[17]": {"test_system": "E. cloacae 118564", "assay": "Checkerboard assay", "type": "cell-based, Enterobacter cloacae", "protocol": "as §2"}, "[18]": {"test_system": "A. baumannii AB031", "assay": "Checkerboard assay", "type": "cell-based, Acinetobacter baumannii", "protocol": "as §2"}, "[19]": {"test_system": "A. baumannii 92247", "assay": "microbe, parasite or virus in culture", "type": "cell-based, Acinetobacter baumannii", "procedure,_shortened": "(§3)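 Two-fold serial dilutions of antibiotic and guanidinylated polymyxin adjuvant crossed in checkerboard against bacterial inoculum prepared as for susceptibility testing; 18 h at 37 °C, growth read as OD590. FIC index = sum of each agent's MIC in combination divided by its MIC alone; ≤0.5 synergy, >0.5–4 additivity, >4 antagonism.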"}, "[20]": {"test_system": "A. baumannii 110193", "assay": "microbe, parasite or virus in culture", "type": "cell-based, Acinetobacter baumannii", "procedure,_shortened": "as §3"}, "[21]": {"test_system": "A. baumannii AB027", "assay": "microbe, parasite or virus in culture", "type": "cell-based, Acinetobacter baumannii", "procedure,_shortened": "as §3"}, "[22]": {"test_system": "E. coli ATCC 25922", "type": "cell-based, Escherichia coli", "details": "ATCC 25922, 18 h", "protocol": "as §1"}, "[23]": {"details": "agent alone, one value per checkerboard plate"}}, "note": "Bridge positions count the residues as written; N and C are the ends. Square brackets hold non-standard residues; d marks the D form. Peptide text beside a SMILES is read from it. Dab = NCC[C@H](N)C(=O)O"}
{"smiles": "CC(C)C[C@@H]1NC(=O)[C@@H](Cc2ccccc2)NC(=O)[C@H](CCN)NC(=O)[C@@H](NC(=O)[C@H](CCN)NC(=O)[C@@H](N)[C@@H](C)O)CCNC(=O)[C@H]([C@@H](C)O)NC(=O)[C@H](CCN)NC(=O)[C@H](CCN)NC1=O", "note": "[PMBN, polymyxin B nonapeptide] (H-T[Dab][Dab][Dab][dF]L[Dab][Dab]T; lactam 3-C (inferred); N-terminus assumed)", "values": [{"measurement": "MIC", "setting": "[1]", "result": 128, "unit": "µg/mL"}, {"measurement": "MIC", "setting": "[2]", "result": ">256", "unit": "µg/mL"}, {"measurement": "MIC", "setting": "[3]", "result": ">256", "unit": "µg/mL"}, {"measurement": "MIC", "setting": "[4]", "result": ">256", "unit": "µg/mL"}, {"measurement": "MIC", "setting": "[5]", "result": ">256", "unit": "µg/mL"}, {"measurement": "MIC alone", "setting": "[6]; [23]", "result": "> 256", "unit": "µg/mL"}, {"measurement": "Fold-potentiation of erythromycin", "setting": "[6]; with 2 μg/mL adjuvant", "result": 8}, {"measurement": "Fold-potentiation of rifampicin", "setting": "[6]; with 2 μg/mL adjuvant", "result": 8}, {"measurement": "MIC alone", "setting": "[7]; [23]", "result": "> 256", "unit": "µg/mL"}, {"measurement": "Fold-potentiation of erythromycin", "setting": "[7]; with 4 μg/mL adjuvant", "result": 1}, {"measurement": "Fold-potentiation of rifampicin", "setting": "[7]; with 4 μg/mL adjuvant", "result": 8}, {"measurement": "MIC", "setting": "[8]", "result": 16, "unit": "µg/mL"}, {"measurement": "MIC", "setting": "[9]", "result": 64, "unit": "µg/mL"}, {"measurement": "MIC", "setting": "[10]", "result": 1, "unit": "µg/mL"}, {"measurement": "MIC", "setting": "[11]", "result": 32, "unit": "µg/mL"}, {"measurement": "MIC", "setting": "[12]", "result": 16, "unit": "µg/mL"}, {"measurement": "MIC alone", "setting": "[13]; [23]", "result": "> 256", "unit": "µg/mL"}, {"measurement": "Fold-potentiation of aztreonam", "setting": "[13]; with 8 μg/mL adjuvant", "result": 8}, {"measurement": "Fold-potentiation of ceftazidime", "setting": "[13]; with 8 μg/mL adjuvant", "result": 4}, {"measurement": "Fold-potentiation of erythromycin", "setting": "[13]; with 8 μg/mL adjuvant", "result": 16}, {"measurement": "Fold-potentiation of rifampicin", "setting": "[13]; with 8 μg/mL adjuvant", "result": 16}, {"measurement": "MIC alone", "setting": "[14]; [23]", "result": "> 256", "unit": "µg/mL"}, {"measurement": "Fold-potentiation of aztreonam", "setting": "[14]; with 8 μg/mL adjuvant", "result": 2}, {"measurement": "Fold-potentiation of ceftazidime", "setting": "[14]; with 8 μg/mL adjuvant", "result": 8}, {"measurement": "Fold-potentiation of erythromycin", "setting": "[14]; with 8 μg/mL adjuvant", "result": 1}, {"measurement": "Fold-potentiation of rifampicin", "setting": "[14]; with 8 μg/mL adjuvant", "result": 8}, {"measurement": "MIC alone", "setting": "[15]; [23]", "result": "> 256", "unit": "µg/mL"}, {"measurement": "Fold-potentiation of aztreonam", "setting": "[15]; with 4 μg/mL adjuvant", "result": 8}, {"measurement": "Fold-potentiation of ceftazidime", "setting": "[15]; with 4 μg/mL adjuvant", "result": 4}, {"measurement": "Fold-potentiation of erythromycin", "setting": "[15]; with 4 μg/mL adjuvant", "result": 8}, {"measurement": "Fold-potentiation of rifampicin", "setting": "[15]; with 4 μg/mL adjuvant", "result": 128}, {"measurement": "MIC alone", "setting": "[16]; [23]", "result": "> 256", "unit": "µg/mL"}, {"measurement": "Fold-potentiation of aztreonam", "setting": "[16]; with 2 μg/mL adjuvant", "result": 2}, {"measurement": "Fold-potentiation of ceftazidime", "setting": "[16]; with 2 μg/mL adjuvant", "result": 1}, {"measurement": "Fold-potentiation of erythromycin", "setting": "[16]; with 2 μg/mL adjuvant", "result": 1}, {"measurement": "Fold-potentiation of rifampicin", "setting": "[16]; with 2 μg/mL adjuvant", "result": 64}, {"measurement": "MIC alone", "setting": "[17]; [23]", "result": "> 256", "unit": "µg/mL"}, {"measurement": "Fold-potentiation of erythromycin", "setting": "[17]; with 8 μg/mL adjuvant", "result": 4}, {"measurement": "Fold-potentiation of rifampicin", "setting": "[17]; with 8 μg/mL adjuvant", "result": 8}, {"measurement": "MIC alone", "setting": "[18]; [23]", "result": "> 256", "unit": "µg/mL"}, {"measurement": "Fold potentiation of aztreonam", "setting": "[18]; with 0.5 μg/mL adjuvant", "result": 1}, {"measurement": "Fold-potentiation of ceftazidime", "setting": "[18]; with 0.5 μg/mL adjuvant", "result": 1}, {"measurement": "Fold-potentiation of erythromycin", "setting": "[18]; with 0.5 μg/mL adjuvant", "result": 4}, {"measurement": "Fold-potentiation of rifampicin", "setting": "[18]; with 0.5 μg/mL adjuvant", "result": 8}, {"measurement": "MIC alone", "setting": "[19]; 92247, 18 h", "result": 256, "unit": "µg/mL"}, {"measurement": "Fold potentiation of aztreonam", "setting": "[19]; with 8 μg/mL adjuvant", "result": 1}, {"measurement": "Fold-potentiation of ceftazidime", "setting": "[19]; with 8 μg/mL adjuvant", "result": 1}, {"measurement": "Fold-potentiation of erythromycin", "setting": "[19]; with 8 μg/mL adjuvant", "result": 1}, {"measurement": "Fold-potentiation of rifampicin", "setting": "[19]; with 8 μg/mL adjuvant", "result": 32}, {"measurement": "MIC alone", "setting": "[20]; 110193, 18 h", "result": 256, "unit": "µg/mL"}, {"measurement": "MIC alone", "setting": "[20]; [23]", "result": "> 256", "unit": "µg/mL"}, {"measurement": "Fold-potentiation of ceftazidime", "setting": "[20]; with 1 μg/mL adjuvant", "result": 1}, {"measurement": "Fold-potentiation of erythromycin", "setting": "[20]; with 1 μg/mL adjuvant", "result": 4}, {"measurement": "Fold-potentiation of rifampicin", "setting": "[20]; with 1 μg/mL adjuvant", "result": 32}, {"measurement": "MIC alone", "setting": "[21]; AB027, 18 h", "result": 256, "unit": "µg/mL"}, {"measurement": "MIC alone", "setting": "[21]; [23]", "result": "> 256", "unit": "µg/mL"}, {"measurement": "Fold potentiation of aztreonam", "setting": "[21]; with 8 μg/mL adjuvant", "result": 2}, {"measurement": "Fold-potentiation of ceftazidime", "setting": "[21]; with 8 μg/mL adjuvant", "result": 2}, {"measurement": "Fold-potentiation of erythromycin", "setting": "[21]; with 8 μg/mL adjuvant", "result": 16}, {"measurement": "Fold-potentiation of rifampicin", "setting": "[21]; with 8 μg/mL adjuvant", "result": 64}, {"measurement": "MIC", "setting": "[22]", "result": ">256", "unit": "µg/mL"}]}
